Measurements taken from the CheMixHub viscosity set.

Assay: xn = mol fraction of the nth substance listed

COC(=O)CC(C)=O + COC(=O)c1ccccc1
viscosity [mPa·s], 101.33 kPa
Settings	x1 = 0.0981	x1 = 0.1935	x1 = 0.2966	x1 = 0.4001	x1 = 0.4987	x1 = 0.5986	x1 = 0.6984	x1 = 0.798	x1 = 0.8977
298.15 K	1.775	1.732	1.703	1.667	1.639	1.615	1.598	1.583	1.569
303.15 K	1.609	1.573	1.548	1.515	1.49	1.469	1.453	1.44	1.429
308.15 K	1.467	1.435	1.413	1.382	1.362	1.343	1.329	1.316	1.306

O=C([O-])CC(O)(CC(=O)O)C(=O)O.[K+] + O
viscosity [mPa·s], 101 kPa
Settings	293.15 K	298.15 K	303.15 K	308.15 K
x1 = 0.0032	1.074	0.954	0.853	0.766
x1 = 0.0089	1.237	1.089	0.97	0.876
x1 = 0.0177	1.419	1.253	1.117	1.002

COc1ccc(C=O)cc1 + Cc1cccc(O)c1
Settings	viscosity [mPa·s]
318.15 K, 101 kPa, x1 = 0.4656	4.085
